We go through 16 compounds from ChEMBL document CHEMBL1148559, “Synthesis and monoamine transporter affinity of new 2beta-carbomethoxy-3beta-[aryl or heteroaryl]phenyltropanes” (Bioorg Med Chem Lett, 2006).

The target in test [1] is Sodium-dependent serotonin transporter (Rattus norvegicus, UniProt P31652). Kind of test: Displacement of [3H]paroxetine from SERT in rat frontoparietal cerebral cortex. It is filed as tissue-based.
Test [2] concerns the target Sodium-dependent dopamine transporter (Rattus norvegicus, UniProt P23977). Put plainly: Displacement of [3H]GBR-12935 from DAT in rat […]. It is filed as tissue-based.
Test [3] addresses Norepinephrine transporter (Rattus norvegicus, UniProt Q9WTR4). Kind of test: Displacement of [3H]nisoxetine from NET in rat […]. It is filed as tissue-based.
Test [4] in a line: Selectivity for SERT over DAT. The note with it: Rattus norvegicus. It is filed as protein assay.
Test [5] deals with Monoamine transporters; Norepinephrine & serotonin (Rattus norvegicus) (UniProt P31652+Q9WTR4). Put plainly: Selectivity for SERT over NET. In kind it is protein assay.

SMILES strings stand for the structures.

Sequence of Sodium-dependent dopamine transporter (P23977 whole entry): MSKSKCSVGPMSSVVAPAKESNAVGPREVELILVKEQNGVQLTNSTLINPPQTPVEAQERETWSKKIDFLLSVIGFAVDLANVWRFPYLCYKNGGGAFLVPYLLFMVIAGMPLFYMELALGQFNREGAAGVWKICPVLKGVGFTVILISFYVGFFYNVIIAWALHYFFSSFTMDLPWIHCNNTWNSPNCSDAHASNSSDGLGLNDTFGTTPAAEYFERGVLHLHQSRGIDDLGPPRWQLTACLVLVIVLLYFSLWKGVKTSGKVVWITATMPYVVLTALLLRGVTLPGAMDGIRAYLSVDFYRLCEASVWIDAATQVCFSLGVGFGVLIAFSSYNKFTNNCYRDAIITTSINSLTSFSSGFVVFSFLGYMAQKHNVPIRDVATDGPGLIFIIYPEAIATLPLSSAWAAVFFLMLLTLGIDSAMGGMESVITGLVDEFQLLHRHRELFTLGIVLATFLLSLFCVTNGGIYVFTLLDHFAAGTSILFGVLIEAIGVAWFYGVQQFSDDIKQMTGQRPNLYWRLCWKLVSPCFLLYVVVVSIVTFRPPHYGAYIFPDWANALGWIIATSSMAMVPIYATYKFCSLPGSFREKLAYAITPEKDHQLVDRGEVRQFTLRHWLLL
Sequence of Sodium-dependent serotonin transporter (P31652 whole entry): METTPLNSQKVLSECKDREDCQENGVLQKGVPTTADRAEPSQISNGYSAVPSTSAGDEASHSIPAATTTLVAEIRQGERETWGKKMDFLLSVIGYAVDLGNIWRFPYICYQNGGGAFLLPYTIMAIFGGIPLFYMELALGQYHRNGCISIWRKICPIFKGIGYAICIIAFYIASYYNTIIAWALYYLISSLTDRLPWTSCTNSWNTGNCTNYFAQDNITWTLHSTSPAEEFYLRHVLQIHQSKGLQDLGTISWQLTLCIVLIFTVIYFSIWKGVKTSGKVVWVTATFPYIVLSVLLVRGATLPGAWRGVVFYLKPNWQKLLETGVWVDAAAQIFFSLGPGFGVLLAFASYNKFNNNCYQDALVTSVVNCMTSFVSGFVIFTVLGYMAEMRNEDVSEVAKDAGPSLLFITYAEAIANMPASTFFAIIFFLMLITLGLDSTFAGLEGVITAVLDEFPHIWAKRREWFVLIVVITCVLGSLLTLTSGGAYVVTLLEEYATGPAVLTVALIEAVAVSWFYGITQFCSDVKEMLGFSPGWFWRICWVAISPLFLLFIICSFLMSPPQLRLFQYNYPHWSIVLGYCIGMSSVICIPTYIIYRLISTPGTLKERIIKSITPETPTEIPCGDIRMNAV
Sequence of Norepinephrine transporter (Q9WTR4 whole entry): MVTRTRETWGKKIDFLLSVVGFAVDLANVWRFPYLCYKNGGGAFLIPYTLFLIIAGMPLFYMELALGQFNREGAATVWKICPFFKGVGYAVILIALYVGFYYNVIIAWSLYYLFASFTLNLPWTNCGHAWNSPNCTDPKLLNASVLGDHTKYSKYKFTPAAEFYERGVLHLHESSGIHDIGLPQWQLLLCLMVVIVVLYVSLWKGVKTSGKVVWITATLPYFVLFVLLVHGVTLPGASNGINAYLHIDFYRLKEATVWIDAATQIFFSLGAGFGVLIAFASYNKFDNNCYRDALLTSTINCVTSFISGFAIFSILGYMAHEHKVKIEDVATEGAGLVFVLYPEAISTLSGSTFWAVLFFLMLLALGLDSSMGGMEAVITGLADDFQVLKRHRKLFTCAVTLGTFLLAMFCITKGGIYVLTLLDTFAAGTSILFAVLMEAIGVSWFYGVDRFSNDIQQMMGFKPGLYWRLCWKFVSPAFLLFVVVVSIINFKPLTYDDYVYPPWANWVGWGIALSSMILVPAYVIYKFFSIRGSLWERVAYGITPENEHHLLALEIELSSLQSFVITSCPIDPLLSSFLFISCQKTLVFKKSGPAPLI

For the compound `COC(=O)C1C2CCC(CC1c1ccc(-c3ccco3)cc1)N2` (stereo not given), the figures for the Ki in test [1], in test [2] and in test [3] were 0.15 nM, 3.76 nM and 12.7 nM, respectively. Moreover, in test [4], the Ratio Ki was found to be 25.

On to `COC(=O)C1C(c2ccc(-c3cccnc3)cc2)CC2CCC1N2C` (stereo not given), for which the Ki stood at 26.1 nM in test [2] and 1410 nM in test [3]. Besides, the Ratio Ki in test [4] was 7.

For `COC(=O)C1C(c2ccc(-c3cnccn3)cc2)CC2CCC1N2C` (stereo not given), the Ki in test [1] turned out to be 11.3 nM; in test [2] it was 121 nM; in test [3], 213 nM. For the same compound, the Ratio Ki in test [4] was 10.

In turn, `COC(=O)C1C(c2ccc(-c3cncnc3)cc2)CC2CCC1N2C` (stereo not given) showed an inhibition constant Ki in test [3] greater than 10000 nM. In addition, in test [4], the Ratio Ki was found to be 110.

In the case of `COC(=O)C1C(c2ccc(-c3nccs3)cc2)CC2CCC1N2C` (stereo not given), the Ki in test [1] is 1.67 nM; in test [2] it was 520 nM; in test [3] it was greater than 10000 nM. Besides, the Ratio Ki in test [4] amounted to 311.

The compound `COC(=O)C1C(c2ccc(-c3cnc4ccccc4c3)cc2)CC2CCC1N2C` (stereo not given) registered a Ki in test [3] greater than 30000 nM. Further, the Ratio Ki in test [4] turned out to be 3.

For `COC(=O)C1C(c2ccc(-c3ccncc3)cc2)CC2CCC1N2C` (stereo not given), the figures for the inhibitory constant (Ki) in test [1], in test [2] and in test [3] were greater than 1000 nM, 1570 nM and greater than 30000 nM, respectively.

For `COC(=O)C1C2CCC(CC1c1ccc(-c3cncc(OC)c3)cc1)N2` (stereo not given), the Ki in test [1] is 1.56 nM; in test [2], 332 nM; in test [3], 739 nM. Besides, the Ratio Ki in test [4] is 212.

As for `COC(=O)C1C(c2ccc(-c3cc(F)cc(F)c3)cc2)CC2CCC1N2C` (stereo not given), the results for the inhibitory constant (Ki) in test [1], in test [2] and in test [3] were 0.41 nM, 31.7 nM and 109 nM, respectively. Also, the Ratio Ki in test [4] worked out at 77; in test [5], 265.

`COC(=O)C1C(c2ccc(-c3ccccn3)cc2)CC2CCC1N2C` (stereo not given) came in with an inhibition constant (Ki) in test [3] greater than 10000 nM. In addition, the Ratio Ki in test [4] was determined as 0.27.

For the compound `COC(=O)C1C(c2ccc(-c3cccc(N(C)C)c3)cc2)CC2CCC1N2C` (stereo not given), the Ki is greater than 1000 nM in test [1], 545 nM in test [2] and greater than 30000 nM in test [3].

With `COC(=O)C1C(c2ccc(-c3cncc(OC)c3)cc2)CC2CCC1N2C` (stereo not given), the Ki in test [1] was 3.91 nM; in test [2] it was 587 nM; in test [3], 1590 nM. Besides, the Ratio Ki in test [4] was 150.

For `COC(=O)C1C2CCC(CC1c1ccc(-c3nccs3)cc1)N2` (stereo not given), the values for the Ki in test [1], in test [2] and in test [3] were 5.15 nM, 69.6 nM and 213 nM, respectively. Besides, the Ratio Ki in test [4] was 13.

Consider `COC(=O)C1C(c2ccc(-c3cccc(F)c3)cc2)CC2CCC1N2C` (stereo not given), for which the inhibition constant Ki in test [1] worked out at 0.5 nM; in test [2], 25.2 nM; in test [3], 249 nM. The Ratio Ki in test [4] is 50; in test [5], 498.

Turning to `COC(=O)C1C(c2ccc(-c3ccoc3)cc2)CC2CCC1N2C` (stereo not given), the Ki in test [1] was found to be 0.35 nM; in test [2], 14.2 nM; in test [3] it was 127 nM. Moreover, the Ratio Ki in test [4] was determined as 40.

`COC(=O)C1C(c2ccc(-c3ccco3)cc2)CC2CCC1N2C` (stereo not given) displayed a Ki in test [3] of 1400 nM. Further, the Ratio Ki in test [4] came out at 6.
